{"source": "patent US20240287042A1", "about": "“NOVEL COMPOUND HAVING INHIBITORY ACTIVITY AGAINST PENDRIN, AND PHARMACEUTICAL USES THEREOF” (UIF (University Industry Foundation), Yonsei University, priority 2021, published 2024)", "key": {"[1]": {"system": "Adriamycin-induced heart failure mouse model", "assay": "Diuretic effect in Adriamycin-induced heart failure mouse model", "assay_type": "in vivo, C57BL/6N mice", "conditions": "heart failure mice", "method": "Wild-type male C57BL/6N mice aged 8 weeks and weighing 20-24 g were purchased from Orient Bio (Seongnam, South Korea). Cardiac ultrasound imaging was performed before administration of Adriamycin. […] Five weeks later, cardiac ultrasound imaging was performed to confirm whether heart failure had been induced.\nA 100 mg/ml stock concentration of YPI-A4948 dissolved in DMSO was prepared to have final concentrations of 0.1 mg/kg/100 ul, 0.5 mg/kg/100 ul and 1 mg/kg/100 ul (1% DMSO+DW), respectively. Heart failure mice were placed in mouse metabolic cages, and water and food were restricted. Before administering YPI-A4948, the bladder of the mouse was stimulated, and YPI-A4948 was injected intraperitoneally alone for two times in total, once every 3 hours for 6 hours. In other groups, it was administered with furosemide at 0.5 mg/kg and 1 mg/kg, respectively, in order to confirm the co-administration effect with other diuretics. Urine was collected from each group of mice after 6 hours."}, "SLC26A4 (pendrin)": {"system": "SLC26A4 (pendrin)", "assay": "Pendrin protein and mRNA expression after LPS in hAEC", "assay_type": "cell-based, human"}, "human wild-type pendrin": {"biological_target": "T1, human wild-type pendrin (Homo sapiens, UniProt O43511)", "T1 construct": "expressed in transfected cells; host or cells: human alveolar epithelial cells (hAEC) overexpressing pendrin", "T1 sequence (O43511 1-780)": "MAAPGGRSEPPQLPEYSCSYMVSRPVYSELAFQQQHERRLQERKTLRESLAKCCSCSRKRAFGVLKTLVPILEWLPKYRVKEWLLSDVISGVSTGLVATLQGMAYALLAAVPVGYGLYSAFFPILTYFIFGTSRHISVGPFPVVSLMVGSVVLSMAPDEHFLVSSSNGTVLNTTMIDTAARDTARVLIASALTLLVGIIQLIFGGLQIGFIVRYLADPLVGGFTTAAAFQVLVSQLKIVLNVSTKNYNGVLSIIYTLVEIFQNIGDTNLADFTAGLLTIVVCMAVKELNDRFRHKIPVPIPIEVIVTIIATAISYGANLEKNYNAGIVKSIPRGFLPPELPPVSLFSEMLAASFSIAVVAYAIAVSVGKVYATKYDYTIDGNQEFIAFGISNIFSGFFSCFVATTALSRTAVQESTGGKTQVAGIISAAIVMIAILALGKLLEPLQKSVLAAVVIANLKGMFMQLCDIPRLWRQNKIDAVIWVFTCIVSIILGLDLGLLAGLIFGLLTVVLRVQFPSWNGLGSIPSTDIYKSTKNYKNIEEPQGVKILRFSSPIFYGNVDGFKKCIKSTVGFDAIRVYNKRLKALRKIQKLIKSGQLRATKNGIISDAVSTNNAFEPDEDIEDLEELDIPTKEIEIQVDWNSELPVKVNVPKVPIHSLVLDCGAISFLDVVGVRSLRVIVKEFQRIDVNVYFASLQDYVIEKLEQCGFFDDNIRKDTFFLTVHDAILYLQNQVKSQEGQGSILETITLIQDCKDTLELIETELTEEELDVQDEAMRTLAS", "assay": "Pendrin Cl−/SCN− exchange activity in human alveolar epithelial cells (hAEC) overexpressing pendrin", "assay_type": "cell-based", "conditions": "0.3 μM to 30 μM, read-out: IC50 of human wild-type pendrin-mediated Cl−/SCN− exchange activity", "method": "In FIG. 13a, human alveolar epithelial cells (hAEC) overexpressing pendrin were treated with YPI-A4948 as a novel pendrin inhibitor from 0.3 μM to 30 μM, and the Cl^−/SCN^− exchange ability of SLC26A4 was measured by the change in YFP fluorescence when compared to before YPI-A4948 treatment. The IC50 of human wild-type pendrin-mediated Cl^−/SCN^− exchange activity was confirmed to be 0.9 μM."}, "C57BL/6N mice": {"system": "C57BL/6N mice", "assay": "Diuretic effect in mice (urine volume)", "assay_type": "in vivo", "conditions": "i.p. twice at 3 h interval, urine volume after 6 hours, alone", "method": "Wild-type male C57BL/6N mice aged 8 weeks and weighing 20-24 g were purchased from Orient Bio (Seongnam, South Korea). Before the experiment, water and diet were restricted, and the bladder was stimulated to induce urine. A 100 mg/ml stock concentration of YPI-A4948 dissolved in DMSO was prepared to have final concentrations of 0.001 mg/kg/100 ul, 0.005 mg/kg/100 ul and […] mg/kg/100 ul, 0.1 mg/kg/100 ul, 0.5 mg/kg/100 ul and 1 mg/kg/100 ul (1% DMSO+DW), respectively, and injected intraperitoneally twice with an interval of 3 hours. After 6 hours, the urine volume of each group of mice was measured."}}}
{"compound": "Cc1ccc2[nH]c(C(=O)O)c(CC(=O)N3CCN(c4c(C)cccc4Cl)CC3)c2c1", "note": "[YPI-A4948, 3-(2-(4-(2-Chloro-6-methylphenyl)piperazin-1-yl)-2-oxoethyl)-5-methyl-1H-indole-2-carboxylic acid]", "values": [{"measurement": "Diuretic effect, co-administered with furosemide", "setting": "[1]; 0.5 mg/kg YPI-A4948 and 1.0 mg/kg furosemide", "value": "additive effect"}, {"measurement": "Diuretic effect, administered alone", "setting": "[1]; 1 mg/kg i.p. twice in 6 hours", "value": "showed a diuretic effect"}, {"measurement": "Protein expression level of SLC26A4 (pendrin)", "setting": "SLC26A4 (pendrin); LPS treatment after YPI-A4948 pretreatment in vitro", "value": "inhibited by YPI-A4948 in a dose-dependent manner"}, {"measurement": "mRNA expression level of pendrin", "setting": "SLC26A4 (pendrin); increased by LPS in vitro", "value": "not statistically significantly reduced"}, {"measurement": "IC50", "setting": "human wild-type pendrin", "value": 900, "unit": "nM"}, {"measurement": "Dose from which a diuretic effect is exhibited", "setting": "C57BL/6N mice", "value": "≥ 0.01", "unit": "mg/kg"}]}
